Measured values published in patent US20250090437A1, “COSMETIC COMPOUNDING AGENT, COSMETIC AND PRODUCTION METHOD THEREOF” (MIYOSHI OIL & FAT CO., LTD., priority 2019, published 2025).

Test: Water retention property test 2 (hydrates)
Type: physicochemical
Settings: hydrate (anhydrides: aqueous solution at mono- to trihydrate concentration); for Pre-test moisture rate: before the test; for Post-test moisture rate / Rate of reduction in moisture: unsealed, 24 hours at 40° C. and 25% RH
Procedure: (2) Water retention property test 2 The water retention property of the hydrate of each compound was evaluated. Hydrates were used in the cases of the compounds C1 to C38, C40 to C49 and C56 to C59; however, since the compounds C39 and C62 to C64 were anhydrides, there were used aqueous solutions prepared by adding water so that a concentration would be that of monohydrate to trihydrate. The moisture rate of the sample(s) was confirmed using a Karl Fischer moisture meter (pre-test moisture rate: A). Next, 1.0 g of each of these samples was added to a screw tube, and this screw tube, while remaining unsealed, was then left to stand still for 24 hours in a thermo-hygrostat set to 40° C. and 25% RH. A moisture rate after 24 hours was again measured (post-test moisture rate: B), followed by calculating a rate of reduction in moisture in a similar manner as above so as to evaluate the water retention property. Here, a comparative evaluation was performed on each hydrate of the compounds C1 to C38, C40 to C49 and C56 to C59 together with an aqueous solution(s) of the compound C39 having a concentration(s) corresponding to the numbers of these hydration waters.
(monohydrates in compounds C1 to C38, C40 to C49 and C56 to C59 of working examples C62 to C99, C103 to C116 with compound C39 of working example C100, compound C62 of comparative example C4, compound C63 of comparative example C7 and compound C64 of comparative example C10)
(dihydrates in compounds C1 to C38, C40 to C49 and C56 to C59 of working examples C62 to C99, C103 to C116 with compound C39 of working example C101, compound C62 of comparative example C5, compound C63 of comparative example C8 and compound C64 of comparative example C11)
(trihydrates in compounds C1 to C38, C40 to C49 and C56 to C59 of working examples C62 to C99, C103 to C116 with compound C39 of working example C102, compound C62 of comparative example C6, compound C63 of comparative example C9 and compound C64 of comparative example C12)

## CC(O)C(=O)O.NCCO (stereo not drawn) [Working example C62]
  Pre-test moisture rate: 10.7%
  Post-test moisture rate: 10.5%
  Rate of reduction in moisture: 1.9%

## CS(=O)(=O)O.NC(CO)CO [Working example C72]
  Pre-test moisture rate: 16.1%
  Post-test moisture rate: 16.0%
  Rate of reduction in moisture: 0.4%

## CC(O)C(=O)O.OCCNCCO [Working example C63]
  Pre-test moisture rate: 15.6%
  Post-test moisture rate: 14.9%
  Rate of reduction in moisture: 4.6%

## NC(CO)CO.O=C(O)CC(O)(CC(=O)O)C(=O)O [Working example C71]
  Pre-test moisture rate: 11.3%
  Post-test moisture rate: 10.7%
  Rate of reduction in moisture: 5.4%

## OCC(O)CO [Comparative example C10]
  Pre-test moisture rate: 16.4%
  Post-test moisture rate: 15.3%
  Rate of reduction in moisture: 6.7%

## CCC(N)(CO)CO.O=C(O)CC(O)(CC(=O)O)C(=O)O [Working example C77]
  Pre-test moisture rate: 10.4%
  Post-test moisture rate: 9.9%
  Rate of reduction in moisture: 4.9%

## CCC(N)(CO)CO.Cl [Working example C80]
  Pre-test moisture rate: 18.8%
  Post-test moisture rate: 17.0%
  Rate of reduction in moisture: 9.8%

## CC(O)C(=O)O.NC(CO)(CO)CO [Working example C81]
  Pre-test moisture rate: 13.2%
  Post-test moisture rate: 12.9%
  Rate of reduction in moisture: 2.6%

## CC(O)C(=O)[O-].CCCC[N+](CCCC)(CCCC)CCCC [Working example C100]
  Pre-test moisture rate: 5.2%
  Post-test moisture rate: 4.9%
  Rate of reduction in moisture: 6.4%

## C[N+](C)(C)CCO.O=C([O-])CO [Working example C89]
  Pre-test moisture rate: 9.1%
  Post-test moisture rate: 8.9%
  Rate of reduction in moisture: 2.6%

## CC(C)(N)CO.O=C1OC(C(O)CO)C(O)=C1O (stereo not drawn) [Working example C115]
  Pre-test moisture rate: 12.0%
  Post-test moisture rate: 11.7%
  Rate of reduction in moisture: 2.9%

## O=C1O[C@H]([C@@H](O)CO)C(O)=C1O.OCCNCCO [Comparative example C104]
  Pre-test moisture rate: 11.4%
  Post-test moisture rate: 11.0%
  Rate of reduction in moisture: 3.5%

## CC(=O)OCC[N+](C)(C)C.O=C1O[C@H]([C@@H](O)CO)C([O-])=C1O [Working example C112]
  Pre-test moisture rate: 10.1%
  Post-test moisture rate: 9.9%
  Rate of reduction in moisture: 2.0%

## CC[N+](C)(C)CCO.CS(=O)(=O)[O-] [Working example C97]
  Pre-test moisture rate: 7.8%
  Post-test moisture rate: 7.7%
  Rate of reduction in moisture: 1.9%

## NC(CO)CO.O=C1O[C@H]([C@@H](O)CO)C(O)=C1O [Comparative example C106]
  Pre-test moisture rate: 11.9%
  Post-test moisture rate: 11.7%
  Rate of reduction in moisture: 1.7%

## C[N+](C)(C)CCO.O=C([O-])CCC(=O)O [Working example C92]
  Pre-test moisture rate: 7.5%
  Post-test moisture rate: 7.1%
  Rate of reduction in moisture: 5.0%

## C[N+](C)(CCO)CC(O)C[N+](C)(C)CCO.[Cl-].[Cl-] [Working example C99]
  Pre-test moisture rate: 10.5%
  Post-test moisture rate: 9.4%
  Rate of reduction in moisture: 10.2%

## CC(C)(N)CO.CC(O)C(=O)O [Working example C113]
  Pre-test moisture rate: 16.7%
  Post-test moisture rate: 16.3%
  Rate of reduction in moisture: 2.5%

## Br.CCC(N)(CO)CO [Working example C79]
  Pre-test moisture rate: 15.3%
  Post-test moisture rate: 13.9%
  Rate of reduction in moisture: 8.9%

## CCC(N)(CO)CO.CS(=O)(=O)O [Working example C78]
  Pre-test moisture rate: 14.3%
  Post-test moisture rate: 14.2%
  Rate of reduction in moisture: 0.9%

## CCCC[N+](CCCC)(CCCC)CCCC.[Br-] [Comparative example C4]
  Pre-test moisture rate: 2.5%
  Post-test moisture rate: 4.9%
  Rate of reduction in moisture: 8.1%
